In PMC6273472, “Design, Synthesis and Biological Evaluation of 6-(2,6-Dichloro-3,5-dimethoxyphenyl)-4-substituted-1H-indazoles as Potent Fibroblast Growth Factor Receptor Inhibitors” (Molecules, 2016):

What was measured:
FGFR1 = FGFR1 (Homo sapiens, UniProt P11362); test: ELISA kinase assay (FGFR1 enzymatic assay); assay type: biochemical; details: for inhibition at 0.01 µM: 0.01 μmol/L compound; for inhibition at 0.01 µM / inhibition at 0.1 µM / inhibition at 1 µM: read-out: Enzyme Inhibition (%); for inhibition at 0.1 µM: 0.1 μmol/L compound; for inhibition at 1 µM: 1 μmol/L compound; for IC50: mean ± SD, two separate experiments
Chain of FGFR1 (P11362 22-822): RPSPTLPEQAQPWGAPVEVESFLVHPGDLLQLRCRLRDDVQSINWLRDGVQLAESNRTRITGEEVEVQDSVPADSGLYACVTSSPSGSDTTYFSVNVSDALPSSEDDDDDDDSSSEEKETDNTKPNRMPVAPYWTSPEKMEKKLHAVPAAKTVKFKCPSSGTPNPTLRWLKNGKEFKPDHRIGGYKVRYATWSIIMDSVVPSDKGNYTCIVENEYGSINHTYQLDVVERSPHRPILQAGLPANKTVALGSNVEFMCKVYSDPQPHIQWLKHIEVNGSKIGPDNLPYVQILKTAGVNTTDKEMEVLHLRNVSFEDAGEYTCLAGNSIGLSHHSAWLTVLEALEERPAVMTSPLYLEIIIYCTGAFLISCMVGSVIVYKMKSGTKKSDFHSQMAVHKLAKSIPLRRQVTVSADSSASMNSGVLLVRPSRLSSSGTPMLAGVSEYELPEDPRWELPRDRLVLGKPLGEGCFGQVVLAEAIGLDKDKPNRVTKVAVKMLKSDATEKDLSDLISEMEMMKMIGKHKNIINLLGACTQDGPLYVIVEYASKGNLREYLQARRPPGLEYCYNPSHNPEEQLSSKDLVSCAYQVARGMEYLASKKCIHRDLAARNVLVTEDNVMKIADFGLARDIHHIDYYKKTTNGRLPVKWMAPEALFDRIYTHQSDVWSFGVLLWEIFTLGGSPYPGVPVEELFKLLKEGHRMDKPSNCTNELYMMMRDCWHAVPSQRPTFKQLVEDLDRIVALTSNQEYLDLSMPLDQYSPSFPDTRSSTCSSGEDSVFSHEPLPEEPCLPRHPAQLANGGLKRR
Experimental: The effects of compounds on the activities of FGFR1 kinases were determined using enzyme-linked immunosorbent assays (ELISAs) with purified recombinant proteins. Briefly, 20 μg/mL poly (Glu, Tyr)4:1 (Sigma, St. Louis, MO, USA) was pre-coated in 96-well plates as a substrate. A 50-μL aliquot of 10 μmol/L ATP solution diluted in kinase reaction buffer (50 mmol/L HEPES [pH 7.4], 50 mmol/L MgCl2, 0.5 mmol/L MnCl2, 0.2 mmol/L Na3VO4, and 1 mmol/L DTT) was added to each well; 1 μL of various concentrations of compounds diluted in 1% DMSO (v/v) (Sigma) were then added to each reaction well. DMSO (1%, v/v) was used as the negative control. The kinase reaction was initiated by the addition of purified tyrosine kinase proteins diluted in 49 μL of kinase reaction buffer. After incubation for 60 min at 37 °C, the plate was washed three times with phosphate-buffered saline (PBS) containing 0.1% Tween 20 (T-PBS). Anti-phosphotyrosine (PY99) antibody (100 μL; 1:500, diluted in 5 mg/mL BSA T-PBS) was then added. After a 30-min incubation at 37 °C, the plate was washed three times, and 100 μL horseradish peroxidase-conjugated goat anti-mouse IgG (1:2000, diluted in 5 mg/mL BSA T-PBS) was added. The plate was then incubated at 37 °C for 30 min and washed 3 times. A 100-μL aliquot of a solution containing 0.03% H2O2 and 2 mg/mL o-phenylenediamine in 0.1 mol/L citrate buffer (pH 5.5) was added. The reaction was terminated by the addition of 50 μL of 2 mol/L H2SO4 as the color changed, and the plate was analyzed using a multi-well spectrophotometer (SpectraMAX 190, Molecular Devices, Palo Alto, CA, USA) at 490 nm. […] The IC50 values were calculated from the inhibition curves in two separate experiments.

Structure (SMILES)	inhibition at 0.01 µM (FGFR1)	inhibition at 0.1 µM (FGFR1)	inhibition at 1 µM (FGFR1)	IC50 (FGFR1)	melting point
COc1cc(OC)c(Cl)c(-c2cc(C(=O)Nc3ccccc3)c3cn[nH]c3c2)c1Cl [Compound 10a, 6-(2,6-Dichloro-3,5-dimethoxyphenyl)-N-phenyl-1H-indazole-4-carboxamide]	27.3%	58.8%	84.1%	69.1 ± 19.8 nM	115 to 117 °C
COc1cc(OC)c(Cl)c(-c2cc(C(=O)Nc3cccc(C(C)=O)c3)c3cn[nH]c3c2)c1Cl [Compound 10b, N-(3-Acetylphenyl)-6-(2,6-dichloro-3,5-dimethoxyphenyl)-1H-indazole-4-carboxamide]		76.4%	82.4%		
COc1cc(OC)c(Cl)c(-c2cc(C(=O)Nc3ccc(C(C)=O)cc3)c3cn[nH]c3c2)c1Cl [Compound 10c, N-(4-Acetylphenyl)-6-(2,6-dichloro-3,5-dimethoxyphenyl)-1H-indazole-4-carboxamide]		32.2%	52.9%		
COc1cccc(NC(=O)c2cc(-c3c(Cl)c(OC)cc(OC)c3Cl)cc3[nH]ncc23)c1 [Compound 10d, 6-(2,6-Dichloro-3,5-dimethoxyphenyl)-N-(3-methoxyphenyl)-1H-indazole-4-carboxamide]		57%	78.4%		
COc1ccc(NC(=O)c2cc(-c3c(Cl)c(OC)cc(OC)c3Cl)cc3[nH]ncc23)cc1 [Compound 10e, 6-(2,6-Dichloro-3,5-dimethoxyphenyl)-N-(4-methoxyphenyl)-1H-indazole-4-carboxamide]		11.9%	68.5%		
COc1cccc(NC(=O)c2cc(-c3c(Cl)c(OC)cc(OC)c3Cl)cc3[nH]ncc23)n1 [Compound 11a, 6-(2,6-Dichloro-3,5-dimethoxyphenyl)-N-(6-methoxypyridin-2-yl)-1H-indazole-4-carboxamide]		47.2%	79.2%		
COc1cc(NC(=O)c2cc(-c3c(Cl)c(OC)cc(OC)c3Cl)cc3[nH]ncc23)ccn1 [Compound 11b, 6-(2,6-Dichloro-3,5-dimethoxyphenyl)-N-(2-methoxypyridin-4-yl)-1H-indazole-4-carboxamide]		49.5%	84.3%		
COc1ccnc(NC(=O)c2cc(-c3c(Cl)c(OC)cc(OC)c3Cl)cc3[nH]ncc23)c1 [Compound 11c, 6-(2,6-Dichloro-3,5-dimethoxyphenyl)-N-(4-methoxypyridin-2-yl)-1H-indazole-4-carboxamide]		42.3%	80%		
COc1cc(NC(=O)c2cc(-c3c(Cl)c(OC)cc(OC)c3Cl)cc3[nH]ncc23)ncn1 [Compound 11d, 6-(2,6-Dichloro-3,5-dimethoxyphenyl)-N-(6-methoxypyrimidin-4-yl)-1H-indazole-4-carboxamide]		43.1%	78.5%		
COc1nccc(NC(=O)c2cc(-c3c(Cl)c(OC)cc(OC)c3Cl)cc3[nH]ncc23)n1 [Compound 11e, 6-(2,6-Dichloro-3,5-dimethoxyphenyl)-N-(2-methoxypyrimidin-4-yl)-1H-indazole-4-carboxamide]		31%	57.4%		
COC(=O)c1cccc(NC(=O)c2cc(-c3c(Cl)c(OC)cc(OC)c3Cl)cc3[nH]ncc23)c1 [Compound 12a, Methyl 3-(6-(2,6-dichloro-3,5-dimethoxyphenyl)-1H-indazole-4-carboxamido)benzoate]	17.1%	35.7%			
CNC(=O)c1cccc(NC(=O)c2cc(-c3c(Cl)c(OC)cc(OC)c3Cl)cc3[nH]ncc23)c1 [Compound 12b, 6-(2,6-Dichloro-3,5-dimethoxyphenyl)-N-(3-(methylcarbamoyl)phenyl)-1H-indazole-4-carboxamide]	42.1%	62.3%		38.6 ± 0.2 nM	155 to 157 °C
CCOC(=O)c1cccc(NC(=O)c2cc(-c3c(Cl)c(OC)cc(OC)c3Cl)cc3[nH]ncc23)c1 [Compound 12c, Ethyl 3-(6-(2,6-dichloro-3,5-dimethoxyphenyl)-1H-indazole-4-carboxamido)benzoate]	9.9%	36.8%			
COc1cc(OC)c(Cl)c(-c2cc(C(=O)Nc3cccc([N+](=O)[O-])c3)c3cn[nH]c3c2)c1Cl [Compound 12d, 6-(2,6-Dichloro-3,5-dimethoxyphenyl)-N-(3-nitrophenyl)-1H-indazole-4-carboxamide]	17.4%	31.6%			
COc1cc(OC)c(Cl)c(-c2cc(C(=O)Nc3cccc(N4CCN(C)C4=O)c3)c3cn[nH]c3c2)c1Cl [Compound 12e, 6-(2,6-Dichloro-3,5-dimethoxyphenyl)-N-(3-(3-methyl-2-oxoimidazolidin-1-yl)phenyl)-1H-indazole-4-carboxamide]	17.2%	36.7%			
COc1cc(OC)c(Cl)c(-c2cc(C(=O)Nc3cccc(N4CCOCC4)c3)c3cn[nH]c3c2)c1Cl [Compound 12f, 6-(2,6-Dichloro-3,5-dimethoxyphenyl)-N-(3-morpholinophenyl)-1H-indazole-4-carboxamide]	28.3%	58.7%		54 ± 8.7 nM	159 to 161 °C
COc1cc(OC)c(Cl)c(-c2cc(C(=O)Nc3cccc(N4CCNCC4)c3)c3cn[nH]c3c2)c1Cl [Compound 12g, 6-(2,6-Dichloro-3,5-dimethoxyphenyl)-N-(3-(piperazin-1-yl)phenyl)-1H-indazole-4-carboxamide]	45.1%	60.9%		78.8 ± 14.2 nM	221 to 223 °C
COc1cc(OC)c(Cl)c(-c2cc(C(=O)Nc3cccc(-c4cnn(C)c4)c3)c3cn[nH]c3c2)c1Cl [Compound 12h, 6-(2,6-Dichloro-3,5-dimethoxyphenyl)-N-(3-(1-methyl-1H-pyrazol-4-yl)phenyl)-1H-indazole-4-carboxamide]	34.5%	52.7%		102.9 ± 0.6 nM	188 to 190 °C
CCN1CCN(c2cccc(NC(=O)c3cc(-c4c(Cl)c(OC)cc(OC)c4Cl)cc4[nH]ncc34)c2)CC1 [Compound 13b, 6-(2,6-Dichloro-3,5-dimethoxyphenyl)-N-(3-(4-ethylpiperazin-1-yl)phenyl)-1H-indazole-4-carboxamide]	13.7%	26.4%		328 ± 65.7 nM	
C=CCN1CCN(c2cccc(NC(=O)c3cc(-c4c(Cl)c(OC)cc(OC)c4Cl)cc4[nH]ncc34)c2)CC1 [Compound 13c, N-(3-(4-Allylpiperazin-1-yl)phenyl)-6-(2,6-dichloro-3,5-dimethoxyphenyl)-1H-indazole-4-carboxamide]	35.7%	41.3%		464 ± 99.1 nM	
COc1cc(OC)c(Cl)c(-c2cc(C(=O)Nc3cccc(N4CCN(C(C)C)CC4)c3)c3cn[nH]c3c2)c1Cl [Compound 13d, 6-(2,6-Dichloro-3,5-dimethoxyphenyl)-N-(3-(4-isopropylpiperazin-1-yl)phenyl)-1H-indazole-4-carboxamide]	7.2%	18.5%			
